What was measured:
[1] = test system: Human ovary cancer A2780 cells xenografts; assay: Inhibition of ovarian A2780 tumor growth in vivo (xenograft); design: species or system Nude:Hsd mice; details: A2780 xenograft in nude mice
Procedure: Groups were composed of 7-8 mice per group.
The procedure was followed for the A2780 ovary cancer cell in-vivo study with the following modifications:
The Veh group received PBS. The CDDP group received 8 mg/kg CDDP (Cisplatin) twice a week.

[2] = test system: IGF1R related cell signaling in human breast cancer MCF7 cells; details: FIG. 15; for IGF1-induced tyrosine phosphorylation of IRS1: 50 ng/ml IGF-1 stimulation
Procedure: (§2) Tyrosine autophosphorylation of the β-subunit of IGF1R as well as downstream signaling induced by IGF1R were assayed in human breast cancer MCF7 cells and in melanoma A375 cells. Cells were seeded in 6-well plates (250,000 cells/well) and 24 hours later medium was replaced by serum-free medium (RPMI supplemented with 100 units/ml penicillin and 100 μg/ml streptomycin). Following 20 hours of serum-starvation, medium was replaced with serum-free medium containing various concentrations of the inhibitors in 0.1% DMSO for an additional 4-5 hours. […] Equal amounts of protein per lane were separated by 8% SDS-PAGE and transferred to a nitrocellulose membrane (Sartorius AG). […] Detection was performed with horseradish peroxidase-conjugated secondary antibody using the ECL system. Blots were then stripped of antibodies, blocked with TBST with 5% low fat milk and re-probed with antibodies detecting both the phosphorylated and the non-phosphorylated corresponding proteins e.g. IGF1Rβ, IRS1, PKB, and ERK. Anti-actin antibodies served as control.
(§3) In addition, lysates were prepared from cells exposed to inhibitors at various concentrations for 24 hours in the presence or the absence of FCS without stimulation. Lysate preparation and western blot were performed as described above.

A375 cells = assay: cells; details: Homo sapiens, A-375, 168 h, read-out: CF (colony formation in soft agar) IC50
Procedure: (§1) Suspensions of separated A375 and U138MG cells were plated in 50 μl growth medium containing 0.3% agar on top of a 100 μl layer of growth medium containing 1% agar in 96-well plates. Growth medium (50 μl) supplemented with inhibitors at various concentrations was added on top. Six to seven days after plating, colonies were stained with 0.5% MTT for 4 hours, and dye was then extracted by the addition of 100 μl dissolving buffer, containing 5 gr sodium dodecyl sulfate, 8.75 ml DDW, 12.5 ml dimethyl formamide, 0.5 ml acetic acid and 0.07 ml HCl. Following incubation overnight at 37° C., optical density values were read at 570 nm in ELISA plate reader. The data was analyzed in Microsoft Excel, using the vehicle control as 100% proliferation. The assays were performed in triplicates. The values of IC50 were derived from the dose-dependent growth curves obtained.

U138MG cells = assay: cells; details: Homo sapiens, U138-MG, 168 h, read-out: CF (colony formation in soft agar) IC50
Procedure: as §1

[3] = test system: IGF1R related cell signaling in human melanoma A375 cells; details: FIGS. 14 and 16; for IGF1-induced tyrosine phosphorylation of IRS1: 50 ng/ml IGF-1 stimulation
Procedure: as §2, §3

[4] = test system: Human melanoma A375 cells xenografts; details: A375 xenograft in nude mice, IP 50 mg/kg daily or 100 mg/kg every other day
Procedure: Human melanoma A375 cells (ATCC, 2×10^6 cells per mouse) were injected subcutaneously into the flank of Nude:Hsd mice. Eight days later, when tumors were formed, mice were divided into 3 groups with similar average tumor size of 120 mm^3. […] The Veh group received daily 2% EtOH, 6% Tween-80 in DDW at volume of 10 ml/kg. Groups were composed of 7-8 mice per group. The length (l) and the width (w) of the tumors were measured twice a week, as well as the mouse body weight. The volumes of the tumors were calculated as follows: v=lw^2/2. Graphs present average volumes of the tumors versus days following treatment initiation.
The mice were treated with daily or alternate day IP injections, at the specified doses.

Structure (SMILES) | inhibition of ovarian tumor growth ([1]; 8 mg/kg twice a week) | IGF1-induced tyrosine phosphorylation of IRS1 [2] | serine phosphorylation of IRS1 (pS636/639-IRS1) and IRS1 level [2] | IC50 (A375 cells) | IC50 (U138MG cells) | inhibition of ovarian tumor growth ([1]; IP daily 25 mg/kg in PBS) | IGF1-induced tyrosine phosphorylation of IRS1 [3] | serine phosphorylation of IRS1 (pS636/639-IRS1) and IRS1 level [3] | inhibition of melanoma tumor growth [4]
[NH2][Pt]([NH2])([Cl])[Cl] [CDDP, Cisplatin, reference compound] | 14% |  |  |  |  |  |  |  | 
Oc1cc(/C=C/C(=S)NCc2cc(O)c(O)c(O)c2Br)cc(Br)c1O [Compound 4] |  | inhibited | induce serine phosphorylation of IRS1, followed by its degradation |  |  |  |  |  | 
Oc1cc(CNC(=S)/C=C/c2ccc(O)c(O)c2Br)cc(O)c1O [Compound 5] |  | inhibited | induce serine phosphorylation of IRS1, followed by its degradation | 0.4 µM | 2.6 µM | 45% | inhibited | induce serine phosphorylation of IRS1, followed by its degradation | 70%
Oc1cc(Br)c(/C=C/C(=S)NCc2cc(O)c(O)c(O)c2)cc1O [Compound 6] |  |  |  |  |  |  | inhibited | induce serine phosphorylation of IRS1, followed by its degradation | 

— US8536227B2, “Modulators of protein kinase signaling” (Novotyr Therapeutics Ltd., priority 2008, dated 2013)
